Each block holds one compound with its values, some of them ahead of it.
System: 843782-103-R-J1-PDC complex spheroid viability
Assay: Anticancer human tumor 843782-103-R-J1-PDC patient-derived lung adenocarcinoma cell line growth inhibition [RAS]
Conditions: for IC50: curve of first compound; for viability, T/C: stronger effect = lower value
Method in brief: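 Agents were tested in combination matrices in half-log decrements from a top concentration at or near clinical Cmax (10 microM if undetermined). Targets were multi-cell spheroids of tumour lines plus HUVEC and MSC stromal cells.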

[1] = second compound 0.000949 µM, first compound 0.0316 µM
[2] = second compound 0.000949 µM, first compound 0.1 µM
[3] = second compound 0.000949 µM, first compound 0.316 µM
[4] = second compound 0.000949 µM, first compound 1 µM
[5] = second compound 0.003 µM, first compound 0.0316 µM
[6] = second compound 0.003 µM, first compound 0.1 µM
[7] = second compound 0.003 µM, first compound 0.316 µM
[8] = second compound 0.003 µM, first compound 1 µM
[9] = second compound 0.00949 µM, first compound 0.0316 µM
[10] = second compound 0.00949 µM, first compound 0.1 µM
[11] = second compound 0.00949 µM, first compound 0.316 µM
[12] = second compound 0.00949 µM, first compound 1 µM
[13] = second compound 0.03 µM, first compound 0.0316 µM
[14] = second compound 0.03 µM, first compound 0.1 µM
[15] = second compound 0.03 µM, first compound 0.316 µM
[16] = second compound 0.03 µM, first compound 1 µM
[17] = second compound 0.0949 µM, first compound 0.0316 µM
[18] = second compound 0.0949 µM, first compound 0.1 µM
[19] = second compound 0.0949 µM, first compound 0.316 µM
[20] = second compound 0.0949 µM, first compound 1 µM
[21] = second compound 0.3 µM, first compound 0.0316 µM
[22] = second compound 0.3 µM, first compound 0.1 µM
[23] = second compound 0.3 µM, first compound 0.316 µM
[24] = second compound 0.3 µM, first compound 1 µM
[25] = second compound 0.000949 µM, first compound 3.16 µM
[26] = second compound 0.000949 µM, first compound 10 µM
[27] = second compound 0.003 µM, first compound 3.16 µM
[28] = second compound 0.003 µM, first compound 10 µM
[29] = second compound 0.00949 µM, first compound 3.16 µM
[30] = second compound 0.00949 µM, first compound 10 µM
[31] = second compound 0.03 µM, first compound 3.16 µM
[32] = second compound 0.03 µM, first compound 10 µM
[33] = second compound 0.0949 µM, first compound 3.16 µM
[34] = second compound 0.0949 µM, first compound 10 µM
[35] = second compound 0.3 µM, first compound 3.16 µM
[36] = second compound 0.3 µM, first compound 10 µM
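Note: viability read after seven days of compound exposure.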

- IC50 (second compound 0.000949 µM): 197 nM
- IC50 (second compound 0.003 µM): 291 nM
- IC50 (second compound 0.00949 µM): 237 nM
- IC50 (second compound 0.03 µM): 406 nM
- IC50 (second compound 0.0949 µM): 329 nM
- IC50 (second compound 0.3 µM): 298 nM
SMILES: CCN1CCN(Cc2ccc(Nc3ncc(F)c(-c4cc(F)c5nc(C)n(C(C)C)c5c4)n3)nc2)CC1 + CCn1c(-c2cccnc2C(C)OC)c2c3cc(ccc31)N1CCOC(CC(NC(=O)C(C(C)C)N(C)C(=O)C3(F)CCN(C(=O)C#CC(C)(C)N(C)C)CC3)C(=O)N3CCCC(N3)C(=O)OCC(C)(C)C2)C1
- viability, T/C (second compound 0.000949 µM, first compound 0.00316 µM): 81%
- viability, T/C (second compound 0.000949 µM, first compound 0.01 µM): 73.8%
- viability, T/C [1]: 59%
- viability, T/C [2]: 58.3%
- viability, T/C [3]: 46.5%
- viability, T/C [4]: 38.1%
- viability, T/C (second compound 0.003 µM, first compound 0.00316 µM): 78.8%
- viability, T/C (second compound 0.003 µM, first compound 0.01 µM): 69.4%
- viability, T/C [5]: 62.8%
- viability, T/C [6]: 67.1%
- viability, T/C [7]: 45.4%
- viability, T/C [8]: 37.8%
- viability, T/C (second compound 0.00949 µM, first compound 0.00316 µM): 71.4%
- viability, T/C (second compound 0.00949 µM, first compound 0.01 µM): 72.5%
- viability, T/C [9]: 67.6%
- viability, T/C [10]: 61.2%
- viability, T/C [11]: 46.2%
- viability, T/C [12]: 34.1%
- viability, T/C (second compound 0.03 µM, first compound 0.00316 µM): 71.3%
- viability, T/C (second compound 0.03 µM, first compound 0.01 µM): 72%
- viability, T/C [13]: 71%
- viability, T/C [14]: 58.8%
- viability, T/C [15]: 56.4%
- viability, T/C [16]: 35.6%
- viability, T/C (second compound 0.0949 µM, first compound 0.00316 µM): 84.2%
- viability, T/C (second compound 0.0949 µM, first compound 0.01 µM): 75.7%
- viability, T/C [17]: 68.7%
- viability, T/C [18]: 60.3%
- viability, T/C [19]: 46.7%
- viability, T/C [20]: 45%
- viability, T/C (second compound 0.3 µM, first compound 0.00316 µM): 72%
- viability, T/C (second compound 0.3 µM, first compound 0.01 µM): 66.1%
- viability, T/C [21]: 56.5%
- viability, T/C [22]: 66.8%
- viability, T/C [23]: 46%
- viability, T/C [24]: 38.8%

- IC50 (second compound 0.000949 µM): 55 nM
- IC50 (second compound 0.003 µM): 50.4 nM
- IC50 (second compound 0.00949 µM): 53.8 nM
- IC50 (second compound 0.03 µM): 44.4 nM
- IC50 (second compound 0.0949 µM): 45.3 nM
- IC50 (second compound 0.3 µM): 36.9 nM
SMILES: Cc1nc(N2CCC3(CC2)COC(C)C3N)c(CO)nc1Sc1ccnc(N)c1Cl (stereo unspecified) + CCn1c(-c2cccnc2C(C)OC)c2c3cc(ccc31)N1CCOC(CC(NC(=O)C(C(C)C)N(C)C(=O)C3(F)CCN(C(=O)C#CC(C)(C)N(C)C)CC3)C(=O)N3CCCC(N3)C(=O)OCC(C)(C)C2)C1
- viability, T/C [1]: 57.4%
- viability, T/C [2]: 43.4%
- viability, T/C [3]: 31.3%
- viability, T/C [4]: 21%
- viability, T/C [25]: 20.8%
- viability, T/C [26]: 17.4%
- viability, T/C [5]: 55.1%
- viability, T/C [6]: 42%
- viability, T/C [7]: 31.6%
- viability, T/C [8]: 22.2%
- viability, T/C [27]: 17.3%
- viability, T/C [28]: 20.6%
- viability, T/C [9]: 55.1%
- viability, T/C [10]: 44.2%
- viability, T/C [11]: 28.6%
- viability, T/C [12]: 21.3%
- viability, T/C [29]: 23.1%
- viability, T/C [30]: 16.4%
- viability, T/C [13]: 53.8%
- viability, T/C [14]: 40.2%
- viability, T/C [15]: 34.5%
- viability, T/C [16]: 27.6%
- viability, T/C [31]: 18.6%
- viability, T/C [32]: 17.8%
- viability, T/C [17]: 55.4%
- viability, T/C [18]: 37%
- viability, T/C [19]: 34.3%
- viability, T/C [20]: 24.1%
- viability, T/C [33]: 19.4%
- viability, T/C [34]: 23.6%
- viability, T/C [21]: 51.3%
- viability, T/C [22]: 42.1%
- viability, T/C [23]: 31.6%
- viability, T/C [24]: 22.6%
- viability, T/C [35]: 20.8%
- viability, T/C [36]: 21.4%

- IC50 (second compound 0.000949 µM): < 31.6 nM
- IC50 (second compound 0.003 µM): < 31.6 nM
- IC50 (second compound 0.00949 µM): < 31.6 nM
- IC50 (second compound 0.03 µM): < 31.6 nM
- IC50 (second compound 0.0949 µM): < 31.6 nM
- IC50 (second compound 0.3 µM): < 31.6 nM
SMILES: NC1c2ccccc2OC12CCN(c1cnc3c(N4CCCc5ncccc54)n[nH]c3n1)CC2 (stereo unspecified) + CCn1c(-c2cccnc2C(C)OC)c2c3cc(ccc31)N1CCOC(CC(NC(=O)C(C(C)C)N(C)C(=O)C3(F)CCN(C(=O)C#CC(C)(C)N(C)C)CC3)C(=O)N3CCCC(N3)C(=O)OCC(C)(C)C2)C1
- viability, T/C [1]: 35.5%
- viability, T/C [2]: 24.2%
- viability, T/C [3]: 17.8%
- viability, T/C [4]: 17%
- viability, T/C [25]: 11.9%
- viability, T/C [26]: 15.1%
- viability, T/C [5]: 32.3%
- viability, T/C [6]: 21.8%
- viability, T/C [7]: 20.1%
- viability, T/C [8]: 16.4%
- viability, T/C [27]: 15.2%
- viability, T/C [28]: 12.4%
- viability, T/C [9]: 27.7%
- viability, T/C [10]: 25.4%
- viability, T/C [11]: 21%
- viability, T/C [12]: 14.5%
- viability, T/C [29]: 14.9%
- viability, T/C [30]: 13.7%
- viability, T/C [13]: 28.8%
- viability, T/C [14]: 24.7%
- viability, T/C [15]: 21.4%
- viability, T/C [16]: 18.5%
- viability, T/C [31]: 15.8%
- viability, T/C [32]: 14.1%
- viability, T/C [17]: 38.2%
- viability, T/C [18]: 24.4%
- viability, T/C [19]: 24%
- viability, T/C [20]: 16.6%
- viability, T/C [33]: 15.4%
- viability, T/C [34]: 12.4%
- viability, T/C [21]: 26.1%
- viability, T/C [22]: 23.8%
- viability, T/C [23]: 18.8%
- viability, T/C [24]: 21.8%
- viability, T/C [35]: 16.9%
- viability, T/C [36]: 14.1%

— PubChem BioAssay AID2060883 (Molecular Pharmacology Branch, DTP, NCI, 2025)
